From paper PMC11487604, “Selective, Intrinsically Fluorescent Trk Modulating Probes” (ACS Chemical Neuroscience, 2024)
Where two headings read alike, the source gives them in different places. *1 amine or outer side, *2 acyl side, *3 side chain or, on linkers, in order; H or OH if unused. Where a SMILES comes first, the peptide text is derived from it. Bridges are numbered along the chain shown (N, C = ends). X1 = COc1ccc(C2=C3C=C(S(=O)(=O)O)C([*:2])=[N+]3[B-](F)(F)n3c2cc(S(=O)(=O)O)c3[*:1])cc1; X2 = COc1ccc(C2=C3C=C(S(=O)(=O)O)C([*:1])=[N+]3[B-](F)(F)n3c2cc(S(=O)(=O)O)c3[*:2])cc1

How the values were obtained:
[1] = target: TrkB-expressing cells (HEK+B) (UniProt Q16620); assay: Cell survival assay in serum-free media, TrkB-expressing cells (HEK+B); assay type: cell-based; details: normalized to DMSO (0%) and 1.0 nM BDNF (100%)
Method: Loop mimics 5 were screened in cell survival assays to evaluate their efficacy in stimulating Trk receptors (Figure 2). Mimics were assayed for the ability to rescue cells from cell death when incubated in serum-free media (SFM) in the absence of NTs (a test for “agonism”) or in the presence of a suboptimal NT concentration (a test for NT “modulation”). Simultaneously, these assays may confirm test mimics are not cytotoxic at lower doses (though cytotoxicity assays were also performed up to higher doses, Figure S1). […] All the test compounds were screened at 50 μM concentrations initially, and then, dose response curves were measured for the hits (Table 1 and Figure 3).
We were forced to use transfectants in different cell lines (HeLa, HEK-293, NIH-3T3 expressing TrkA, B, and C, respectively) due to difficulties in obtaining transfected cells derived from a single wild type; however, none of the cells used express TrkA-C prior to transfection. Throughout this paper, HeLa cells are denoted as “HeLa”, and their TrkA transfectants are “HeLa+A”. Similarly, HEK-293 cells are “HEK”; their TrkB transfectants are HEK+B. NIH-3T3 cells are “NIH”, and their TrkC transfectants are “NIH+C”.
Cells were seeded at a density of 2 × 10^3 cells/well in complete media in 96-well plates and incubated for 24 h to allow cells to adhere. Cells were washed with DPBS, and then, media were swapped for serum-free media of the same type as the complete media. Cells were then treated with 50 μM compound either alone or in conjunction with suboptimal neurotrophin corresponding to the Trk receptor expressed for 48 h. Cells were washed with DPBS buffer twice and detached from the plate with 50 μL of trypsin for 3 min at 37 °C. Trypsinization was quenched with 100 μL of complete media. Cells were suspended and live cells counted using flow cytometry (CytoFLEX LX). Cell survival was normalized from cell count (CC) readings relative to optimal neurotrophin (NT = 100%) and DMSO (0%) utilizing GraphPad Prism 10.2, followed by statistical analysis via one-way ANOVA and Dunnett’s t test compared to the DMSO control. Dose response versions of this assay were conducted following the same procedure, but the data was analyzed in GraphPad Prism 10.2 using the nonlinear fit: {agonist} vs response – variable slope (four parameters) function.

TrkB (HEK293-TrkB cells) = target: T1, TrkB (HEK293-TrkB cells) (Homo sapiens, UniProt Q16620); assay: Cell-surface fluorescence binding to live HEK293-TrkB cells; details: HEK293-TrkB minus HEK293 wild-type fluorescence, 2.5 h
T1 construct: expressed in transfected cells; host or cells: HEK293
Source text: Binding of the selective, intrinsically fluorescent mimics to cells can be observed and quantitated via fluorescence. Raw data includes fluorescence associated with material not removed in the washing step (sticky, nonselective binding), and if there were binding to any receptors other than Trk, then fluorescence would be observed for this too. In a second experiment, fluorescence associated with the wild-type cells without Trk expression was similarly recorded to provide a baseline correction representative of that nonselective binding, plus affinity to non-Trk receptors if that occurred. Consequently, fluorescence observed in the noncompetitive experiment minus that in the one using Trk-negative cell lines represents a minimum associated with binding to the expressed Trk receptor. […]
Trk-positive transfected cell lines (HeLa-TrkA, HEK293-TrkB, and NIH3T3-TrkC) and Trk-negative cell lines (HeLa, HEK293, and NIH3T3) were seeded at a density of 2 × 10^3 cells/well in 96-well plates and incubated for 24 h to allow them to adhere. […] Cell associated fluorescence was then determined by measuring emission of the resulting solution on a plate reader (BioTek Synergy H4 Hybrid Reader), λex (540/25 nm) and λem (620/40 nm). […]

pMAPK in NIH+C cells = assay: ELFI, pMAPK signaling in NIH+C cells, competition with NT; assay type: cell-based; details: competed with 10 ng/mL NT, 1 h
Method: (§1) Throughout, the positive control was concentration-dependent treatment with the parent NT in half-log dilutions from 100 ng/mL to 0.1 ng/mL, and the negative control was to treat the cells with only DMSO. We first determined Z′ factors[83] based on these boundary controls. Once the assays had been validated (Z′ > 0.5), we determined optimal times to fix cells after treatment (taking into account potential differences in the kinetics of Trk activation between small molecules and neurotrophins), mimicked dose ranges, and then performed dose response studies.
(§2) Assays were conducted as previously reported.[36] Trk-positive cells (PC12, HEK293-TrkB, and NIH3T3-TrkC) were seeded at a density of 2 × 10^4 cells per well in poly-D-lysine (PDL)-coated 96-well white flat-bottomed plates and allowed to adhere for 24 h. Cells were washed once with SFM and then incubated for 1–2 h in SFM. A serial dilution of compound and/or NT was added, and the cells were incubated for 15 min (agonism experiments) or 1 h (antagonism). […] Cells were washed 6× with WB, and then, levels of phosphorylation were quantified using SuperSignal ELISA Pico Chemiluminescent Substrate (Thermo Scientific). […] IC50 is calculated for 5c(ii) using the {inhibitor} vs response – variable slope (four parameters) function in GraphPad Prism 10.2.

[2] = target: TrkA-expressing cells (HeLa+A) (UniProt P04629); assay: Cell survival assay in serum-free media, TrkA-expressing cells (HeLa+A); assay type: cell-based; details: Figure 8 summary
Method: Cells were seeded at a density of 2 × 10^3 cells/well in complete media in 96-well plates and incubated for 24 h to allow cells to adhere. Cells were washed with DPBS, and then, media were swapped for serum-free media of the same type as the complete media. […] Cells were suspended and live cells counted using flow cytometry (CytoFLEX LX).

[3] = system: primary adult cortical neurons; assay: Primary adult cortical neuron assay (neurite outgrowth and survival); assay type: cell-based, mouse; details: 5 μM, neurons from 6-week-old male mice
Source text: We next decided to test the effects of 5c(ii) on primary mouse adult cortical neurons. These neurons naturally express TrkA[84] and therefore provide a more clinically relevant substrate to test compound leads in than analogous Trk-expressing transfectants. In addition, using neurons extracted from adult mice provide increased relevance to neurodegenerative and other nervous-system related diseases and injury, since most of these primarily occur in adult populations.[85],[86] To determine any potential for preclinical applications, 5c(ii) (5 μM) was incubated with primary cortical neurons from 6-week-old male mice at the time of plating, and neuronal survival and neurite outgrowth were quantified.
Figure 7 5c(ii) promotes neuroprotection. Primary adult cortical neurons were extracted from 6-week-old male mice and plated on 384-well PDL-coated plastic bottom plates at 10,000 cells/well. 5c(ii) at 5 μM concentration was added at the time of plating. 48 h after plating, the cells were fixed to conduct immunocytochemistry. Graph represents the mean ± SEM of (a) total neurite outgrowth per cell and (b) number of valid neurons per well. Representative images of cortical neurons treated with (c) vehicle and (d) 5 μM 5c(ii). Student’s t test. N = 3–5. *p < 0.05.
Cortical neuron assay was conducted as previously described.[85] Briefly, wild-type 6-week-old C57Bl/6 male mice were euthanized using CO2, and the brains were removed. The cortex was isolated and transferred to a MACS C-tube and then dissociated using the Miltenyi gentleMACS octo-dissociator on a preset protocol designed for adult rodent brains. […] Images were quantified using the Neurite Outgrowth Analysis Module in MetaXpress 6 software (Molecular Devices). For quantification, the number of valid neurons is determined by quantifying the number of TUBB3^+/DAPI^+ cells in a well with ≥10 μm of total neurite outgrowth. Total neurite outgrowth is determined by dividing the length of all neurites in a well by the number of valid neurons in that respective well. […]

pAKT in NIH+C cells = assay: ELFI, pAKT signaling in NIH+C cells, competition with NT; assay type: cell-based; details: competed with 10 ng/mL NT, 1 h
Method: as §1, §2

[4] = system: pAKT in PC12 (TrkA+) cells; assay: ELFI, pAKT signaling in PC12 cells, competition with NT; assay type: cell-based, rat; details: competed with 10 ng/mL NT, 1 h
Method: as §1, §2

[5] = system: pMAPK in PC12 (TrkA+) cells; assay: ELFI, pMAPK signaling in PC12 cells, competition with NT; assay type: cell-based, rat; details: competed with 10 ng/mL NT, 1 h
Method: as §1, §2

[6] = design: method as in PMID 34451801; details: lack of selectivity; cited from earlier work

Sequence of TrkB-expressing cells (HEK+B) (Q16620 32-822): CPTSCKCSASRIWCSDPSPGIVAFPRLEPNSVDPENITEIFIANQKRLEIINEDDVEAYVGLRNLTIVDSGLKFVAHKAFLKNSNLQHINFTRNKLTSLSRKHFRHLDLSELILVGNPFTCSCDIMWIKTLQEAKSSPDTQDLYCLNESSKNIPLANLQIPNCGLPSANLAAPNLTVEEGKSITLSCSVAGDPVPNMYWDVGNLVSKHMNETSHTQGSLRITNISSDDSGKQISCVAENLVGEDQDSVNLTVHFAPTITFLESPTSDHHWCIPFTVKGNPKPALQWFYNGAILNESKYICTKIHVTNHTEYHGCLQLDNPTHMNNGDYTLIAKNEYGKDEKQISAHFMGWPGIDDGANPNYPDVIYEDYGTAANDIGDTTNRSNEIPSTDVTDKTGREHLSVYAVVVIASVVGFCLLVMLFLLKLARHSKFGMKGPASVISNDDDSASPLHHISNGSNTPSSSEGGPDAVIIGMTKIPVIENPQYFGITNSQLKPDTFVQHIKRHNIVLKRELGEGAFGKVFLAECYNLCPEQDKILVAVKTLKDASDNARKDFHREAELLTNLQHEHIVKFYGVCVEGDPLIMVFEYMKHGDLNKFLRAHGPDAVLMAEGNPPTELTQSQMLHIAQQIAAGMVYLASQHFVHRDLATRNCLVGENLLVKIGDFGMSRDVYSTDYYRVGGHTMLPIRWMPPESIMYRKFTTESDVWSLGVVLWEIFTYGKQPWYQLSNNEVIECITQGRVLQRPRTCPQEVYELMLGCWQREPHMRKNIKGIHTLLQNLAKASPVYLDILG
Sequence of TrkA-expressing cells (HeLa+A) (P04629 33-796): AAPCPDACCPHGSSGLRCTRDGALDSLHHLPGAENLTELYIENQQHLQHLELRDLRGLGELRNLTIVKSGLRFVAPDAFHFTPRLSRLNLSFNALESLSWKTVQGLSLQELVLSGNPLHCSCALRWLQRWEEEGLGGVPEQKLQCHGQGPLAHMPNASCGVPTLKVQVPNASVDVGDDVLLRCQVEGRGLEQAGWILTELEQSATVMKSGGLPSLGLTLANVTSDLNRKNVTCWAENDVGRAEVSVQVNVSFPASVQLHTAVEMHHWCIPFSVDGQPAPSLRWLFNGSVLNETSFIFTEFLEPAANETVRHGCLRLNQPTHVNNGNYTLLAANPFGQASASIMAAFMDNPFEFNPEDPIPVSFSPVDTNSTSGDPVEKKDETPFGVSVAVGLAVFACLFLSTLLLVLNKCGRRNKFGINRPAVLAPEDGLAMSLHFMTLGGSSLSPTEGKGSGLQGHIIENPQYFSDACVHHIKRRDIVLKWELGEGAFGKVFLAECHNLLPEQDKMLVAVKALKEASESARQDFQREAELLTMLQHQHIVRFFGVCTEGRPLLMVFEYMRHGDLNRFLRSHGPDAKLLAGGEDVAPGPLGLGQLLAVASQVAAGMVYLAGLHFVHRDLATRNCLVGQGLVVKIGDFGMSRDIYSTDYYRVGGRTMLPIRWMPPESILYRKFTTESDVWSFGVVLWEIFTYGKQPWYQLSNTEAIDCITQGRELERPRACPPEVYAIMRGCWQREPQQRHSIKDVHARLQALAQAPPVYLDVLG

COc1ccc(C2=C3C=C(S(=O)(=O)O)C4=[N+]3[B-](F)(F)n3c2cc(S(=O)(=O)O)c3SC[C@@H](C(N)=O)NC(=O)CNC(=O)[C@H](CO)NC(=O)[C@H](CCSC)NC(=O)[C@H](CC(=O)O)NC(=O)[C@@H](NC(C)=O)CS4)cc1 [5b(i)] (Ac-CDMSGC-NH2; linker 1-6 via X2)
EC50 ([1]; cell survival with 0.6 nM BDNF, read-out: EC50 (μM) with suboptimal neurotrophin): 1.8 µM
EC50 ([1]; dose-dependent cell survival without NT, read-out: EC50): 0.4 µM
Kd (TrkB (HEK293-TrkB cells)): 73 ± 13 nM

COc1ccc(C2=C3C=C(S(=O)(=O)O)C4=[N+]3[B-](F)(F)n3c2cc(S(=O)(=O)O)c3SC[C@H](NC(C)=O)C(=O)N[C@@H]([C@@H](C)O)C(=O)N[C@@H](CCC(N)=O)C(=O)N[C@@H](CC(N)=O)C(=O)N[C@@H](CO)C(=O)N[C@H](C(N)=O)CS4)cc1 [5c(ii)] (Ac-CTQNSC-NH2; linker 1-6 via X1; N-terminus and C-terminus assumed)
IC50 (pMAPK in NIH+C cells): 35 µM
result (Trk activity assigned) [2]: TrkA modulator
change in neurite outgrowth ([3]; 48 h): no significant change
increase in the number of valid neurons ([3]; after 48 h, vs vehicle): over 50%
IC50 (pAKT in NIH+C cells): 7 µM
IC50 [4]: 7 µM
IC50 [5]: 7 µM

O=c1cc(-c2ccccc2)oc2c(O)c(O)ccc12 [7,8-DHF, 7,8-Dihydroxyflavone]
number of targets bound [6]: 133
